Source: publication PMC7510464, “The wasp venom antimicrobial peptide polybia‐CP and its synthetic derivatives display antiplasmodial and anticancer properties” (Bioengineering & Translational Medicine, 2020)
No end group written: not given here.

Experiments:
[1] = tested on: human mammary cells (MCF-7); test: MTT assay, MCF-7 cells; format: cell-based; conditions: 570 nm, method gives serial dilutions 0.09–50 μmol L^−1, 2 and 24 hr (time for IC50 not stated), triplicate, NO = not observed, read-out: IC50, concentration of peptide needed for killing 50% of MCF-7
Method: (§1) Human mammary adenocarcinoma (MCF‐7) cells were maintained in RPMI 1640 medium supplemented with 10% heat inactivated fetal bovine serum and 100 μg ml^−1 penicillin/10 μg ml^−1 streptomycin. While hepatocellular carcinoma (Hep G2) cells, neuroblastoma (SHSY‐5Y) cells and melanoma (SK‐mel‐147) cells were maintained in RPMI 1640 medium supplemented with 10% heat inactivated fetal bovine serum and 100 μg ml^−1 penicillin/10 μg ml^−1 streptomycin. One day before the assays, the cells were plated in 96‐well microtiter plate with a density of 2.0 × 10^4 cells/well at 37°C and 5% CO2. On the next day, cells were treated with peptides serial dilutions (0.09–50 μmol L^−1), incubated in individual microtiter plates for 2 and 24 hr and MTT assays were performed after treatment. Human breast epithelial cells MCF‐10A (ATCC) were maintained in mixture of Dulbecco's modified Eagle's medium and Ham's F12 nutrient mixture supplemented with 5% inactivated horse serum, 10 μg ml^−1 insulin, 0.02 μg ml^−1 human epidermal growth factor, 0.5 μg ml^−1 hydrocortisone, 0.10 μg ml^−1 choleric toxin, 100 U ml^−1 penicillin, and 100 μg ml^−1 streptomycin. […]
(§2) Briefly, MTT (Sigma–Aldrich) was dissolved in water and filtered to make up a 5 μg ml^−1 solution. […] Finally, the microplates were read on an ELISA reader at 570 nm. […]

[2] = tested on: carcinoma cells of human liver (HepG2); test: MTT assay, HepG2 cells; format: cell-based; conditions: 570 nm, method gives serial dilutions 0.09–50 μmol L^−1, 2 and 24 hr (time for IC50 not stated), triplicate, NO = not observed, read-out: IC50, concentration of peptide needed for killing 50% of HepG2
Method: as §1, §2

[3] = tested on: Plasmodium gallinaceum sporozoites; test: Effect of peptides on salivary gland-derived P. gallinaceum sporozoites (membrane integrity, propidium iodide fluorescence); format: cell-based; conditions: peptides 0.39–6.25 μmol L^−1, 9000 sporozoites in 50 μl PBS, 37°C, 1 hr, fluorescence microscopy, three independent replicates
Method: To assess the antiplasmodial activity of Pol‐CP‐NH2 and its derivatives, the molecules were incubated with Plasmodium gallinaceum sporozoites. The avian malaria parasite, P. gallinaceum, was chosen as the plasmodium model for this study because it presents lower risk and it is highly similar ^27 , ^28 to existing Plasmodium falciparum models responsible for human malaria. ^29
FIGURE 2 Antiplasmodial activity of polybia‐CP and derivatives in vitro. […] In red, we highlight the conditions at which the peptides were not active against the Plasmodium sporozoites. Experiments were performed in three independent replicates with three repetitions for each condition
Nine thousand P. gallinaceum mature sporozoites were pulled from the salivary glands of A. aegypti and incubated in 50 μl of PBS solution, with 40 μmol L^−1 digitonin (positive control), 0.39–6.25 μmol L^−1 peptides or negative control (PBS solution), at 37°C for 1 hr. Cell membrane integrity was then observed using a Carl Zeiss inverted fluorescence microscope (model Observer Axio Vision A.1) coupled to an image capture Zeiss AxioCam HR digital camera (1,300 × 1,030 pixels resolution and 8‐bit quantization) after addition of 1 μl of the propidium iodide aqueous solution (200 μmol L^−1) in […] of total solution volume. Images were obtained using a ×40 objective lens and a green filter effect in red. […]

[4] = tested on: neuroblastoma cell (SH-SY5Y); test: MTT assay, SH-SY5Y cells; format: cell-based; conditions: 570 nm, method gives serial dilutions 0.09–50 μmol L^−1, 2 and 24 hr (time for IC50 not stated), triplicate, NO = not observed, read-out: IC50, concentration of peptide needed for killing 50% of SH-SY5Y
Method: as §1, §2

[5] = tested on: human embryonic kidney (HEK293) cells; conditions: at 25 μmol L^−1; cited from earlier work
Description: The inhibitory activities observed against cancer cell lines are at the same range of concentrations reported for antimicrobial activity ^6 (Figure 2b) for this family of peptides.

Substance	IC50 [1] [µM]	IC50 [2] [µM]	antiplasmodial activity (fluorescent sporozoites, membrane disrupted) [3]	IC50 [4] [µM]	toxicity against HEK293 cells [5]
ILGKILGLLKSL-NH2 [[Lys]^4-Pol-CP-NH2]	200	> 50	most active ones against Plasmodium	> 50	–
ILGTILGLLKSL-NH2 [Pol-CP-NH2, Ile‐Leu‐Gly‐Thr‐Ile‐Leu‐Gly‐Leu‐Leu‐Lys‐Ser‐Leu‐NH2]	200	–	–	–	one of the most toxic AMPs of the polybia‐CP family
